# In US6989435B2, “Compounds and methods to inhibit or augment an inflammatory response” (Cambridge University Technical Services Ltd., priority 1997, dated 2006):
# Marks after values point to notes of the source that are not given here. Positions of bridges follow the written chain, without caps; N, C: chain ends. Non-standard residues stand in square brackets, D forms with d. Residues, ends and D or L forms follow the SMILES beside them. No end group written: not given here.
# What was measured:
# [1] = molecular target: T1, Duffy Antigen Receptor for Chemokines (DARC) (Homo sapiens, UniProt Q16570); assay: DARC binding: competition with 125I-labeled MCP-1 on red blood cells; conditions: for DUFFY SELECTIVITY: estimated ka for binding to red blood cells divided by average inhibitory ED50 versus each of the chemokines
# T1 sequence (Q16570 1-336): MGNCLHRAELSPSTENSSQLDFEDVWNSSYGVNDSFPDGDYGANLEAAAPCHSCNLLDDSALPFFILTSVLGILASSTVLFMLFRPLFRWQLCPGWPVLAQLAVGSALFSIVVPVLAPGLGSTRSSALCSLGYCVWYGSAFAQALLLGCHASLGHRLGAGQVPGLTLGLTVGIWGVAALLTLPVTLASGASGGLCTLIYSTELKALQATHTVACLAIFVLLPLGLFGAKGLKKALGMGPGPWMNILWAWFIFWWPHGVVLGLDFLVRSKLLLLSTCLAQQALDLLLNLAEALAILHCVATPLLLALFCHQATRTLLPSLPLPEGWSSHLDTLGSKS
# [2] = tested on: chemokine-induced THP-1 migration (MCP-1, MIP1α, IL8, SDF1α); assay: Trans-well THP-1 migration assay, across the chemokines tested; type: cell-based, human; conditions: for CC SPECIFICITY: Table 7, average inhibitory ED50 versus SDF1 and IL8 divided by average inhibitory ED50 versus MCP-1 and MIP1α; for selectivity ratio (CC versus CXC chemokines): >1 = greater inhibition of CC chemokines, <1 = of CXC chemokines
# Protocol: To determine whether an agent inhibits a chemokine-induced activity, such as macrophage recruitment, varying amounts of the agent are mixed with cells in the presence of a known chemoattractant. […] Chemokine (such as MCP-1, MIP1α, IL8 or SDF-1α), at a concentration known to cause significant migration of THP-1 cells in the trans-well migration assay, is placed in the lower compartment (FIG. 1). […] After incubation, the cells are gently removed from the top of the filter with a pipette, 20 μl of 20 mM EDTA in simple PBS is added into each top well, and incubated for 20 minutes at 4° C. The filter is carefully flushed with media using a gentle flow, and removed. […] The media is carefully aspirated from each well, and the converted dye is solubilized by 20 μl of DMSO. Absorbance of converted dye is measured at a wavelength of 595 nm using an ELISA plate reader. The number of migrated cells in each well is then determined by interpolation of the standard curve (see also Imai et al., J. Biol. Chem., 272, 15036 (1997)). […] The framed filter was aligned with the holes in the corner of the filter frame and placed over the wells. Five×10^4 THP-1 cells in 25 μl of RPMI-1640 culture media were added to the upper compartment. Peptides were dissolved in Milli Q water and then serially diluted in culture medium. In most cases, the serially diluted peptides were added to the upper compartment of the chemotaxis chamber. […] After incubation, the cells were gently removed from the top of the filter with a pipette, 20 μl of 20 mM EDTA in PBS was added into each top well, and the mixture was incubated for 20 minutes at 4° C. The filter was then carefully flushed with media using a gentle flow, and removed. […] The media was carefully aspirated from each well, and the converted dye was solubilized by 20 μl of DMSO. Absorbance of converted dye was measured at a wavelength of 595 nm using an ELISA plate reader. […] Representative chemokines included a beta-chemokine (“CC”), MIP-1α, and two alpha-chemokines (“CXC”), IL-8 and SDF-1α. […]
# [3] = tested on: IL8 induced THP-1 migration; assay: Trans-well THP-1 migration assay, IL8 as chemoattractant; type: cell-based, human
# Protocol: (§1) FIG. 1 is a schematic of the trans-well migration assay. In most experiments, the peptide (wavy line) is added to the upper well with about 50,000 cells (O). The upper and lower wells are separated by a 5 μm or 8 μm pore size PVP-free membrane (- - - -). Chemokine (●) is added to the lower well. After 4 hours, the number of cells that have migrated through the membrane are measured (◯ in lower well).
# (§2) To determine whether an agent inhibits a chemokine-induced activity, such as macrophage recruitment, varying amounts of the agent are mixed with cells in the presence of a known chemoattractant. For example, a range of known concentrations of an agent, e.g., a chemokine peptide, is incubated with a defined number (e.g., 10^4-10^6) of human THP-1 monocyte cells in individual wells of the top compartment of a trans-well plate. […] A standard curve consisting of a two-fold dilution series of THP-1 cells (in 29 μl) is prepared to accurately quantify the number of cells that have migrated. […] Absorbance of converted dye is measured at a wavelength of 595 nm using an ELISA plate reader. The number of migrated cells in each well is then determined by interpolation of the standard curve (see also Imai et al., J. Biol. Chem., 272, 15036 (1997)). […]
# [4] = tested on: MCP-1 induced THP-1 migration; assay: Trans-well THP-1 migration assay, MCP-1 as chemoattractant; type: cell-based, human; conditions: for IC50: derivatives of leu4ile11peptide 3, read-out: MCP-1 inhibitory activity in the THP-1 transwell assay
# Protocol: as §1
# To determine whether an agent inhibits a chemokine-induced activity, such as macrophage recruitment, varying amounts of the agent are mixed with cells in the presence of a known chemoattractant. For example, a range of known concentrations of an agent, e.g., a chemokine peptide, is incubated with a defined number (e.g., 10^4-10^6) of human THP-1 monocyte cells in individual wells of the top compartment of a trans-well plate. Chemokine (such as MCP-1, MIP1α, IL8 or SDF-1α), at a concentration known to cause significant migration of THP-1 cells in the trans-well migration assay, is placed in the lower compartment (FIG. 1). Cells are then incubated at 37° C. for a period sufficient to allow migration, e.g., 4 hours. After incubation, the cells are gently removed from the top of the filter with a pipette, 20 μl of 20 mM EDTA in simple PBS is added into each top well, and incubated for 20 minutes at 4° C. The filter is carefully flushed with media using a gentle flow, and removed. A standard curve consisting of a two-fold dilution series of THP-1 cells (in 29 μl) is prepared to accurately quantify the number of cells that have migrated. Migrated cells are stained with 3 μl of MTT stock dye solution which is added directly into each well (5 mg/ml in RPMI-1640 without phenol red, Sigma Chemical Co.) and incubated at 37° C. for 4 hours. The media is carefully aspirated from each well, and the converted dye is solubilized by 20 μl of DMSO. Absorbance of converted dye is measured at a wavelength of 595 nm using an ELISA plate reader. The number of migrated cells in each well is then determined by interpolation of the standard curve (see also Imai et al., J. Biol. Chem., 272, 15036 (1997)).
# (§3) Any method suitable for counting cells can be used, for example, counting with a hemocytometer, incubation of the cells with MTT (see above), or FACS analysis. A negative control assay is also performed, using TGF-β or another non-chemokine chemoattractant (e.g., IL1β or TNFα). To assess whether the agent is cytotoxic, the same concentrations of agent are incubated with THP-1 cells. Agents which 1) are not cytotoxic at levels which inhibit migration, 2) are ineffective at inhibiting the negative control-induced migration, and 3) reduce or inhibit chemokine-induced THP-1 migration, are agents which fall within the scope of the invention.
# (§4) For this assay, THP-1 cells were maintained at a density of 4×10^5 cells per ml in RPMI-1640 supplemented with 10% fetal calf serum+20 μM 2-mercaptoethanol. Chemotaxis was induced in a 96-well disposable chemotaxis chamber fitted with a […] polycarbonate filter (PVP free, ChemoTX, Neuroprobe Inc., Cabin John). Twenty-nine μl of chemoattractant (recombinant human chemokine; 50 ng/ml, i.e., 5.9 nM) or control (100 ng/ml TGFβ) was added to the lower compartment of each well. The framed filter was aligned with the holes in the corner of the filter frame and placed over the wells. Five×10^4 THP-1 cells in 25 μl of RPMI-1640 culture media were added to the upper compartment. Peptides were dissolved in Milli Q water and then serially diluted in culture medium. In most cases, the serially diluted peptides were added to the upper compartment of the chemotaxis chamber. The chamber was incubated at 37° C. in a humidified atmosphere of 5% CO2 for 4 hours.
# After incubation, the cells were gently removed from the top of the filter with a pipette, 20 μl of 20 mM EDTA in PBS was added into each top well, and the mixture was incubated for 20 minutes at 4° C. The filter was then carefully flushed with media using a gentle flow, and removed. […]
# [5] = tested on: TGFβ1 induced THP-1 migration; assay: Trans-well THP-1 migration assay, TGFβ1 as non-chemokine control chemoattractant; type: cell-based, human; conditions: Table 6; n.s. = no statistically significant inhibition, even at 100 μM
# Protocol: as §3
# as §4, with “In most cases, the serially diluted peptides were added to the upper compartment of the chemotaxis chamber. The chamber was incubated at 37° C. in a humidified atmosphere of 5% CO2 for 4 hours.” left out
# After incubation, the cells were gently removed from the top of the filter with a pipette, 20 μl of 20 mM EDTA in PBS was added into each top well, and the mixture was incubated for 20 minutes at 4° C. […] A standard curve was prepared to accurately quantify the number of THP-1 cells that had migrated. […] Absorbance of converted dye was measured at a wavelength of 595 nm using an ELISA plate reader. The number of cells that had migrated in each well was determined by interpolation of the standard curve.
# To investigate the receptor specificity of peptide 3 inhibition, the ED50 was determined for peptide 3(1-12)[MCP-1] […]
# [6] = tested on: SDF-1α induced THP-1 migration; assay: Trans-well THP-1 migration assay, SDF-1α as chemoattractant; type: cell-based, human
# Protocol: as §1, §2
# [7] = Table 6, n.s. = no statistically significant inhibition
molecule,measurement,setting,value
NCCCC[C@H](NC(=O)[C@H](CCC(N)=O)NC(=O)[C@@H](N)CCCCN)C(=O)O [KQK],Kd,[1],> 50 µM
CC[C@H](C)[C@H](NC(=O)[C@H](C)NC(=O)[C@H](CC(=O)O)NC(=O)[C@@H]1CCCN1C(=O)[C@H](CCC(N)=O)NC(=O)[C@H](C)N)C(=O)N[C@@H](CC(N)=O)C(=O)N[C@@H](C)C(=O)N1CCC[C@H]1C(=O)N[C@H](C(=O)N[C@H](C(=O)N[C@@H](CS)C(=O)N[C@@H](CS)C(=O)O)[C@@H](C)O)C(C)C [Peptide 1] (H-AQPDAINAPVTCC-OH),Kd,[1],> 100 µM
-CQVWKQKPDA C- ([dC][dQ][dV][dW][dK][dQ][dK][dP][dD][dA][dC]; disulfide 1-11) [CRD-Cys13pep3[3-12]],DUFFY SELECTIVITY,[1]; Table 7,8.82
APG [reference compound],"inhibition of THP-1 cell migration induced by MCP-1, MIP1α, IL-8 and SDF1α, in words",[2],None of these significantly inhibited
CADPKQKWVQ [Peptide 3[3-12]],CC SPECIFICITY,[2],1.2
same,DUFFY SELECTIVITY,[1]; Table 7,1.21
CLDPKKEWIQ [SEE],"ED50 versus IL8, THP-1 migration",[3]; [7],n.s.
same,"ED50 versus MCP1, THP-1 migration",[4]; [7],n.s.
same,"ED50 versus TGFβ1, THP-1 migration",[5],n.s.
same,specificity for the cognate chemokine over the other chemokines tested,[2],> 100 fold
same,CC SPECIFICITY,[2],>100
same,"ED50 versus SDF1α, THP-1 migration",[6]; [7],n.s.
CQVWKQKPDAC [LRD-Cys13leu4ile11pep3[3-12]],IC50,[4],0.2 to 0.4 µM
same,DUFFY SELECTIVITY,[1]; Table 7,4.59
DYFETSSQCSKPGV [Pep2[MIP1α]],Kd,[1],> 50 µM
same,DUFFY SELECTIVITY (peptide 2 family),"[1]; Table 7, ka for binding to red blood cells divided by the ka for binding THP-1 cells",>100^d
EICADP [Peptide 3[1-6]],CC SPECIFICITY,[2],0.7
EICADPKQKWIQ [Ile11peptide 3],selectivity ratio (CC versus CXC chemokines),[2],0.9
same,CC SPECIFICITY,[2],0.9
EICADPSEEWVQ [Ser7Glu8Glu9pep 3],CC SPECIFICITY,[2],1.6
same,DUFFY SELECTIVITY,[1]; Table 7,0.59
EICADPSQKWVQ [Ser7peptide 3],selectivity ratio (CC versus CXC chemokines),[2],0.5
same,CC SPECIFICITY,[2],0.5
same,DUFFY SELECTIVITY,[1]; Table 7,2.00
EICLDPKQKWIQ [Leu4ile11peptide 3],concentrations inhibiting MCP1 induced migration,[4],around 1 μM
same,potency as an inhibitor of MCP-1 signaling relative to peptide 3(1-12)[MCP-1],[4],approximately 5 fold
same,IC50,[4],1 to 5 µM
same,potency as an inhibitor of CC chemokines relative to peptide 3(1-12)[MCP-1],[2],approximately 5 fold
same,selectivity ratio (CC versus CXC chemokines),[2],2.0
same,CC SPECIFICITY,[2],2.0
same,"DARC binding, in words",[1],essentially no DARC binding capacity
EICLDPKQKWVQ [Leu4peptide 3],increase in potency as an inhibitor of CXC chemokines compared with peptide 3(1-12)[MCP-1],[2],approximately 4 fold
same,selectivity ratio (CC versus CXC chemokines),[2],0.37
same,CC SPECIFICITY,[2],0.4
GGR [reference compound],"inhibition of THP-1 cell migration induced by MCP-1, MIP1α, IL-8 and SDF1α, in words",[2],None of these significantly inhibited
KEN [cognate tripeptide from IL8],"inhibition of IL8, in words",[3]; THP-1 migration,specific and potent inhibitor
same,CC SPECIFICITY,[2],<0.1
KLK [cognate tripeptide from SDF1],CC SPECIFICITY,[2],<0.1
same,"inhibition of SDF1, in words",[6]; THP-1 migration,specific and potent inhibitor
KQKWVQ [Peptide 3[7-12]],selectivity ratio (CC versus CXC chemokines),[2],1.1
same,CC SPECIFICITY,[2],1.0
same,DUFFY SELECTIVITY,[1]; Table 7,2.94
same,DARC specificity ratio / Duffy selectivity,[1]; estimated ka for association with DARC divided by the ED50 for biological activity,about 3.0
Leu4ile11peptide 3(3-12)[MCP-1]: leu4ile11 variant of peptide 3(3-12)[MCP-1] (CLDPKKEWIQ),affinity relative to peptide 3(1-12)[MCP-1],[2]; in words,higher affinity peptide analog
RGD [reference compound],"inhibition of THP-1 cell migration induced by MCP-1, MIP1α, IL-8 and SDF1α, in words",[2],None of these significantly inhibited
TTT [reference compound],"inhibition of THP-1 cell migration induced by MCP-1, MIP1α, IL-8 and SDF1α, in words",[2],None of these significantly inhibited
WIQ,CC SPECIFICITY,[2],1.0
